pIC50: −log10 of the molar value. Calls of active or inactive are those of the source. No cut-off for these calls is given here.

The target in one experiment is T1, Spermidine synthase (Plasmodium falciparum) (UniProt Q9NFS5).
T1 sequence (whole entry): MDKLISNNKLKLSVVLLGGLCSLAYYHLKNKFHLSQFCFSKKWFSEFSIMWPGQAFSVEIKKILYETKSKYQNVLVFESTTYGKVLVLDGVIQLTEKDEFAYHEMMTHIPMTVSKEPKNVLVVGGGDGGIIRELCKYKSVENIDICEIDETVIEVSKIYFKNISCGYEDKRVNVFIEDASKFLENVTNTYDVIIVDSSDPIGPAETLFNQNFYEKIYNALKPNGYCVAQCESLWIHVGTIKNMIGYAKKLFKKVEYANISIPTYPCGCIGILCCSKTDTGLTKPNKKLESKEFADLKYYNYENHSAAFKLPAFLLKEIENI
As to the kind of experiment: Binding affinity to Plasmodium falciparum spermidine synthase by saturation transfer difference-NMR experiment relative to methylthioadenosine.
For the compound `Nc1ncnc2c1ncn2[C@@H]1O[C@H](CO)[C@@H](O)[C@H]1O`, the outcome was Active.

In the case of `NCCCCCc1nc2ccccc2[nH]1`, the result was Active. Take `NC(=O)CSc1nc2ncnc(N)c2[nH]1`: the outcome was Active.

Consider `Nc1nnc(SCC(=O)Nc2cccc(Oc3ccccc3)c2)[nH]1`, for which the outcome was inactive.

A further experiment has as its target T2, Spermidine synthase (Plasmodium falciparum, UniProt Q9NFS5).
T2 sequence (Q9NFS5 whole entry): T1 sequence (whole entry)
As to the kind of experiment: Inhibition of Plasmodium falciparum spermidine synthase.
As to `CC1CCC(N)CC1` (centres undefined), the pIC50 was 5.85.

With `CSC[C@H]1O[C@@H](n2cnc3c(N)ncnc32)[C@H](O)[C@@H]1O` [METHYLTHIOADENOSINE], the pIC50 is 3.80.

The next experiment has as its system Plasmodium falciparum. As to the kind of experiment: Growth inhibition of Plasmodium falciparum. The class given is functional, organism-based.
`CC1CCC(N)CC1` (centres undefined) gave a pIC50 of 4.47.

In another experiment the target is T1, Spermidine synthase (Plasmodium falciparum). Description: Binding affinity to Plasmodium falciparum spermidine synthase by saturation transfer difference-NMR experiment.
As to `NC(=O)c1ncn([C@@H]2O[C@H](CO)[C@@H](O)[C@H]2O)n1`, the result was inactive.

As for `O=C(CSc1cnn[nH]1)Nc1ncccn1`, the result was inactive. For `NCCCCCc1nnc(SCC(=O)Nc2cccc(Cl)c2)o1`, the result was inactive. For `Nc1nnc(SCC(=O)NCc2ccc3c(c2)OCO3)[nH]1`, the outcome was inactive. Same read-out and setting: as for `N=c1c(N)c(O)ncn1CC(=O)c1ccc(I)cc1`, the entry is “inactive”; as for `O=C1NC(=S)NC(=O)C1=CNCCc1cnc[nH]1`, “inactive”. Same read-out and setting: the value for `O=C(C1CCCCN1)N1CCN(Cc2cccnc2)CC1` (centres undefined) was “inactive”; that for `O=C(c1ccc2cn[nH]c2c1)N1CCN(c2ccccn2)CC1` was “inactive”.

With `Nc1ncnc2c1ncn2[C@@H]1O[C@H](CO)[C@@H](O)[C@H]1O`, the outcome was Active. With `Cn1c(SCC(=O)c2ccc3[nH]c(=O)oc3c2)nnc1-c1ccncc1`, the result was inactive.

With `O=C1C=C(NCCc2c[nH]cn2)CC1`, the outcome was inactive.

In the case of `NCCSC1CC(=O)N(c2ccc(F)cc2)C1=O` (centres undefined), the outcome was inactive. The same measure, in the same setting: as for `Nc1nc(N)nc(SCC(=O)NCc2ccc(F)cc2)n1`, the entry is “inactive”; as for `O=C(c1ccc2[nH]cnc2c1)N1CCN(C/C=C/c2ccccc2)CC1`, “Active”. The same measure, in the same setting: the value for `O=C(CSc1nnc[nH]1)c1ccc2c(c1)OCCO2` was “inactive”. The same measure, in the same setting: as for `O=C(CSc1nnc[nH]1)Nc1nccs1`, the entry is “inactive”; as for `NCCCCCCCNC(=O)Cc1ncc(C(F)(F)F)cc1Cl`, “inactive”; as for `O=C(CSc1nccc(=O)[nH]1)NCc1ccco1`, “inactive”. Turning to `NC(=O)CSc1nc2ncnc(N)c2[nH]1`, the result was Active. The same measure, in the same setting: the value for `Nc1nnc(SCC(=O)Nc2cccc(Oc3ccccc3)c2)[nH]1` was “Active”; that for `CCCCc1nnc(NC(=O)CSc2nnc[nH]2)s1` was “inactive”. On the same count and under the same terms, the value for `Nc1nnc(SCC(=O)NCC2CN(Cc3ccccc3)CCO2)s1` (centres undefined) was “inactive”.

For the origin of these results see ChEMBL document CHEMBL1150259, “Identification of Plasmodium falciparum spermidine synthase active site binders through structure-based virtual screening” (J Med Chem, 2008).
